Measurements as given in US20260138981A1, “DIHYDROFOLATE REDUCTASE INHIBITORS FOR ANTI-BIOTIC RESISTANT INFECTIONS” (THE TRUSTEES OF PRINCETON UNIVERSITY, priority 2022, published 2026).

Experiments:
[1] = tested on: P. aeruginosa PA14; experiment: Murine thigh infection model of PA14; format: in vivo, mouse; settings: 24 hours
Procedure: FIG. 2C quantifies treatment of mice with fluorofolin (SC) with or without SMX 100 mg/kg (IP).
FIG. 2D characterizes Fluorofolin and SMX treatment of mice fed a diet of thymidine-supplemented chow during PA14 infection. Mice were treated 1 and 12 hours post infection (n=5 for each group). P values from Tukey's multiple comparisons test (P-values≤0.0001).
To investigate the ability of fluorofolin to clear a P. aeruginosa infection in vivo, a murine thigh infection model of PA14 was employed. The maximum tolerated dose of fluorofolin was determined to be 25 mg/kg administered subcutaneously (SC). […] We note that this dose of SMX was previously used to mimic clinically-relevant levels of SMX used for cotreatment with TMP in humans. Mice were inoculated with 5.33 log CFU of P. aeruginosa PA14 CFU of PA14 and treated SC with fluorofolin at 25 mg/kg at 1 and 12 hours post infection. Thighs were harvested 24 hours post infection to determine bacterial load.
It was also sought to support the feasibility of thymidine supplementation in vivo by testing the hypothesis that fluorofolin should remain active in the presence of thymidine supplementation. […]
Female 5-6-week-old CD-1 mice were made neutropenic through intraperitoneal (IP) cyclophosphamide treatment (Cytoxan) prior to this study. […] In vivo efficacy was evaluated by the University of North Texas Health Science Center (Fort Worth, Texas).

[2] = tested on: PA14 mutants with disruptions in mexA, mexB and oprM; experiment: MIC against MexAB-OprM transposon mutants; format: cell-based, P. aeruginosa; settings: oprM transposon mutants vs wildtype PA14
Procedure: FIG. 1I is the minimum inhibitory concentration of fluorofolin or trimethoprim against transposon mutants for each component of the MexAB-OprM efflux pump. MIC against wildtype PA14 was calculated to control for each drug stock. MIC values are representative of two independent replicates.
P. aeruginosa PA14 transposon mutants were generated by the Ausubel Lab (http://ausubellab.mgh.harvard.edu/cgi-bin/pa14/home.cgi). The MICs of fluorofolin and TMP against strains with disrupted MexA, MexB, and OprM were determined as above and compared to the parental strain. As transposon mutants in MexB were represented twice in this collection, the MIC was confirmed across both mutant strains.

[3] = tested on: P. aeruginosa PA14; experiment: Membrane permeability, TO-PRO-3 flow cytometry; format: cell-based; settings: PA14, 2×MIC, 15 min
Procedure: FIG. 5A provides flow cytometry results of PA14 stained with the membrane permeability dye TO-PRO-3. […]. The gates were determined for TO-PRO-3 staining using solvent only and polymixin B controls.
The ability of fluorofolin to permeabilize P. aeruginosa PA14 was examined. Specifically, flow cytometry of P. aeruginosa stained with TO-PRO-3 was used, treated the bacteria with 2×MIC, and analyzed membrane integrity. […] It was hypothesized that this decrease in membrane targeting might also decrease toxicity due to the disruption of eukaryotic membranes.
Overnight P. aeruginosa PA14 or E. coli lptD4213 cultures were diluted 1:100 and grown to mid exponential phase at 37° C. Cultures were diluted 1:10 into PBS and treated with antibiotics for 15 minutes. P. aeruginosa PA14 was stained with TO-PRO-3 (640 nm excitation, 670/30 nm emission) to measure cell membrane integrity. […] DiOC2(3) was evaluated as a ratio of green (488 nm excitation, 525/50 nm emission) to red (488 nm excitation, 610/20 nm emission) (Novo et al., 1999). […] 100,000 events were recorded for each data file. Gates for permeabilization were determined using Polymixin B (Sigma-Aldrich P1004) and untreated controls. Gates for depolarization were determined using CCCP as a positive control. Data was analyzed using FlowJo v10 software (FlowJo LLC, Ashland, OR).

[4] = Serum binding (plasma protein binding, dialysis); format: in vitro ADME; settings: mouse plasma
Procedure: An initial t=0 sample was collected. fluorofolin was incubated with plasma for 6 hours after which dialysis was performed. After dialysis, supernatant was collected, and the amount of fluorofolin was determined by LC-MS/MS to determine the % Unbound of fluorofolin. Serum binding parameters were determined as follows: • 1. % Bound=100%−% Unbound • 2. Log K=Log (% Bound/100−% Bound) • 3. % Remaining=Area-ratio6hr/Area-ratio0hr×100% • 4. % Recovery was determined as (Area-ratiobuffer-chamber+Area-ratioplasma-chamber)/(Area-ratioTotal sample)×100 Serum binding analysis was performed by Pharmaron, Inc. (Beijing, ROC). C. elegans Maintenance and Toxicity Assay

[5] = tested on: CDC & FDA Antibiotic Resistant P. aeruginosa Isolate Bank; experiment: CDC clinical isolate panel growth inhibition; format: cell-based; settings: 50 μg/mL
Procedure: Strains with growth inhibition>80% were considered sensitive to fluorofolin treatment.
Clinical isolates^45 were inoculated into LB Broth a 96-well flat bottom plate and grown overnight to stationary phase at 37° C. […] Percent growth was calculated by dividing OD600 of fluorofolin antibiotic treated wells to vehicle only wells.

Nc1nc(N)c2c(ccc3c2ccn3Cc2ccnc(F)c2)n1 [fluorofolin]
growth of PA14 in thigh (bacterial load) ([1]; fluorofolin 25 mg/kg SC + SMX 100 mg/kg IP at 1 and 12 hours post infection, vs no treatment and SMX alone, P<0.0001): significantly inhibited the growth of PA14 | P. aeruginosa load in thigh, thymidine-supplemented diet ([1]; fluorofolin and SMX, mice fed thymidine-supplemented chow, vs untreated mice): significant reduction | change of MIC in efflux pump mutants [2]: did not decrease their MIC against fluorofolin to the same extent | disruption of membranes (TO-PRO-3) [3]: does not cause significant disruption | recovery at 6 h, 1 μM [4]: 91.9% | sensitivity of isolates expressing KPC-5 and NDM-1 carbapenemase genes [5]: remained sensitive | sensitivity of strains 7, 18 and 23 of the CDC panel (dfrB2) [5]: fluorofolin-sensitive | clinical isolates resistant ([5]; OD600 vs vehicle control): 14.5%
